Laboratory results: patent publication US7871790B2 (priority 2004, dated 2011)
Residues, ends and D or L forms follow the SMILES beside them. *: point of attachment. Cbz = O=C(OCc1ccccc1)*; CH2F = FC*

Experiments:
[1] = target: T1, ICE (caspase-1) (Mus musculus, UniProt P29452)
T1 sequence (P29452 119-296 limits assumed): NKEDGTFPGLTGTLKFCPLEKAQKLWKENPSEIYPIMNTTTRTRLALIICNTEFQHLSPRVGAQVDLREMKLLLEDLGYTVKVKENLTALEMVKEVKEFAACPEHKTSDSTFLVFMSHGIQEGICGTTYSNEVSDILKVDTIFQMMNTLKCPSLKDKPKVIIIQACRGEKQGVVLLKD
T1 sequence (P29452 315-402 limits assumed): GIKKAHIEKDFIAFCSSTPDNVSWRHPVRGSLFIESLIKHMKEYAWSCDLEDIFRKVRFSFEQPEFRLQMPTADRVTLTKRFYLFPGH

[2] = test system: RAW 264.7 murine macrophage cell line; assay type: cell-based; settings: 24 h

## COC(=O)CC[C@H](NC(=O)[C@H](Cc1c[nH]c2ccccc12)NC(=O)OCc1ccccc1)C(=O)N[C@@H](Cc1cnc[nH]1)C(=O)N[C@@H](CC(=O)OC)C(=O)CF [Z-WEHD-FMK] (Cbz-WE(OMe)HD(OMe)-CH2F)
[1]
  Effect on cell viability: no observable effect
[1]; 24 hours
  Blocking of IL-1β production induced by anthrax LT: ~70%
  Blocking of IL-18 production induced by anthrax LT: ~70%

## lipopolysaccharide [LPS]
[2]
  Dose needed for induction of IL-1β comparable to that resulting from anthrax LT treatment: ≥ 100 EU/ml
  Induction of IL-18: not induced
